According to PMC3914206:

Experiments:
panel of 442 kinases [1] = target: T1, panel of 442 kinases (Homo sapiens, UniProt P30291); assay type: binding; settings: kinase WEE1; compound concentration 10 µM
T1 construct: purchased KINOMEscan
Description: (§1) We assessed the selectivity of members of this scaffold using the KINOMEscan methodology across a near comprehensive panel of 442 kinases [[18,27]].

panel of 442 kinases [2] = target: T2, panel of 442 kinases (Homo sapiens, UniProt P57078); assay type: binding; settings: Compound Concentration 10 µM
T2 construct: purchased KINOMEscan
T2 sequence (P57078 1-832): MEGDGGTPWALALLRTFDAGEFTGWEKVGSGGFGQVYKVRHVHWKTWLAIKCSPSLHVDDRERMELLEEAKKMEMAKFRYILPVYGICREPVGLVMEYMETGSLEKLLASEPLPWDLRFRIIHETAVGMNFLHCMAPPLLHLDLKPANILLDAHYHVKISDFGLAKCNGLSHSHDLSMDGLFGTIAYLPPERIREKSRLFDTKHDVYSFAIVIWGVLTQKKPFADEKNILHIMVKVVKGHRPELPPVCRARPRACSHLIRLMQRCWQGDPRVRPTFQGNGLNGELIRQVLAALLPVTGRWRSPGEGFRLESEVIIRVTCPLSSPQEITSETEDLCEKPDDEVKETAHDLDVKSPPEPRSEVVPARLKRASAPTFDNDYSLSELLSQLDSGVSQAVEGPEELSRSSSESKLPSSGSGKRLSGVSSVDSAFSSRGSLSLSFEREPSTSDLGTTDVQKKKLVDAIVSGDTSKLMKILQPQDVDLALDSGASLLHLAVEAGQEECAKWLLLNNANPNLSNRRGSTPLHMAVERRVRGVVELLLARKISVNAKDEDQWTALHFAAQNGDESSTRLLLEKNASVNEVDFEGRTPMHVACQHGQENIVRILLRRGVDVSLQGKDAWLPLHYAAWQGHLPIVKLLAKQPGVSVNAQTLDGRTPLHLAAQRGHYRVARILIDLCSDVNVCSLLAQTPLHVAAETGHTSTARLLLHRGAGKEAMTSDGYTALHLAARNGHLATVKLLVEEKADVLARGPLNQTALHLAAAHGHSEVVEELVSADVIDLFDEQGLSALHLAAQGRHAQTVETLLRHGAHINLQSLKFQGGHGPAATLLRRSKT
Description: as §1

T1 sequence (P30291 whole entry): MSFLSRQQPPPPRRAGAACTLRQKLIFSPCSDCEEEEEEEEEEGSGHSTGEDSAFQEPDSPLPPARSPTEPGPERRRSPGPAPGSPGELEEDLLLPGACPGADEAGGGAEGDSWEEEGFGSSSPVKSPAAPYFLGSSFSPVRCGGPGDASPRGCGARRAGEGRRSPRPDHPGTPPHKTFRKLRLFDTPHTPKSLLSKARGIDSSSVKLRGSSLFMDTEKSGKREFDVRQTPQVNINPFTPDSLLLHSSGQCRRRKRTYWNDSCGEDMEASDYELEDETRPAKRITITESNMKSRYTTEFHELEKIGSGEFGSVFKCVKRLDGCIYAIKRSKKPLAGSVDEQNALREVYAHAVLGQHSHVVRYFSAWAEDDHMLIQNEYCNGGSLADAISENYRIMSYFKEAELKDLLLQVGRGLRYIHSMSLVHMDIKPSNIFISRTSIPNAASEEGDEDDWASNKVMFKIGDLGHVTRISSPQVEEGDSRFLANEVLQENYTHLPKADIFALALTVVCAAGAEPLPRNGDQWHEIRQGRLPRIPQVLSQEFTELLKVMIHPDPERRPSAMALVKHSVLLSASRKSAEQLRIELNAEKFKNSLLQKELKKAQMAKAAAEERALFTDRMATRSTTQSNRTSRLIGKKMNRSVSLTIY

Structure (SMILES)	% Ctrl, WEE1 (panel of 442 kinases [1])	KINOMEscan: RIPK4 (panel of 442 kinases [2])
CCOc1cc(C(=O)N2CCC(N3CCN(C)CC3)CC2)ccc1Nc1ncc2c(n1)N(C1CCCC1)c1ccccc1C(=O)N2C [Compound 26]	100 % Ctrl	100
COc1cc(C(=O)N2CCC(N3CCN(C)CC3)CC2)ccc1Nc1ncc2c(n1)N(C1CCCC1)c1ccccc1C(=O)N2C [Compound 25, 11-cyclopentyl-2-((2-methoxy-4-(4-(4-methylpiperazin-1-yl)piperidine-1-carbonyl)phenyl)amino)-5-methyl-5H-benzo[e]pyrimido[5,4-b][1,4]diazepin-6(11H)-one]	98 % Ctrl	100
COc1cc(C(=O)N2CCC(N3CCN(C)CC3)CC2)ccc1Nc1ncc2c(n1)N1CCc3cccc(c31)C(=O)N2C [Compound 24]	82 % Ctrl	
COc1cc(C(=O)N2CCC(N3CCN(C)CC3)CC2)ccc1Nc1ncc2c(n1)N(C)c1ccccc1C(=O)N2C [15 (LRRK2-IN-1)]	100 % Ctrl	74
